In brackets after ≈: the same amount, converted by molar mass. Read-outs that look alike come from different tables or passages of the source.
What was measured:
[1] = test system: bacteria, fungi and yeasts; details: general statement, no test data given, cited from earlier work
[2] = test system: bacteria, fungi and yeasts; experiment: Antimicrobial activity, overall statements on the test series; assay type: cell-based
Description: (§1) Below, the antimicrobial efficacy of a composition according to the invention consisting of 50% by weight of isorbide caprylate 1 and 50% by weight of a 2% by weight strength solution of methylisothiazolinone in water against bacteria, fungi and yeasts is examined (hereinbelow, the composition is referred to as “composition A”). For the tests with bacteria, composition A was diluted with butyl polyglycol and then, at 50° C., added to liquid CASO agar (casein-peptone agar) buffered to pH 7 (+/−0.2) in various concentrations (hereinbelow referred to as compositions B1, B2, etc.). For the tests with fungi and yeasts, composition A was diluted with butyl polyglycol and then added to liquid Sabouraud 4% dextrose agar buffered to pH 5.6 (+/−0.2) in various concentrations (hereinbelow referred to as compositions PH1, PH2, etc.). The compositions B1, B2, etc. and PH1, PH2 etc. were each poured into Petri dishes and each inoculated with identical amounts of bacteria, fungi and yeasts. The minimum inhibitory concentration (MIC) is the concentration at which inhibition of the growth of the bacteria, fungi and yeasts in the compositions B1, B2, etc. and PH1, PH2, etc. occurs.
(§2) The minimum inhibitory concentrations for the pure substances isosorbide caprylate 1 and methylisothiazolinone were determined analogously.
(§3) Kull et al., Applied Microbiology 1961, 9, 538 using the formula below: […]

Fusarium solani = experiment: Minimum inhibitory concentration (MIC) in agar, antimicrobial efficacy; assay type: cell-based; details: Sabouraud 4% dextrose agar pH 5.6
Description: as §1, §2
(§4) The values determined for the minimum inhibitory concentrations “MIC mixture”, stated in Table 1 below, are based on the concentrations of composition A.
(§5) The values determined for the minimum inhibitory concentrations “QA” and “QB”, stated in Table 1 below, have already been corrected for the dilution effect of the water and the butyl polyglycol.
as §3
(§6) where • Qa is the minimum inhibitory concentration of isosorbide caprylate 1 in the mixture employed, • QA is the minimum inhibitory concentration of isosorbide caprylate 1, • Qb is the minimum inhibitory concentration of methylisothiazolinone in the mixture employed and • QB is the minimum inhibitory concentration of methylisothiazolinone.
(§7) The values for Qa and Qb are determined from the values for the mixtures (“MIC mixture”) by multiplying the minimum inhibitory concentrations determined for Qa with the factor 0.5 and for Qb with the factor 0.01, because of the proportions of the ingredients—50% by weight of isosorbide caprylate 1 and 50% by weight of a 2% by weight strength solution of methylisothiazolinone in water—in composition A according to the invention examined.
(§8) If an SE value >1 is obtained, an antagonistic effect is present.

Enterobacter aerogenes = experiment: as above; assay type: cell-based; details: CASO agar pH 7
Description: as §1, §2, §4, §5, §3, §6, §7, §8

Penicillium minioluteum = experiment: as above; assay type: cell-based; details: Sabouraud 4% dextrose agar pH 5.6
Description: as §1, §2, §4, §5, §3, §6, §7, §8

Penicillium funicolosium = experiment: as above; assay type: cell-based; details: Sabouraud 4% dextrose agar pH 5.6
Description: as §1, §2, §4, §5, §3, §6, §7, §8

Escherichia coli = experiment: as above; assay type: cell-based; details: CASO agar pH 7
Description: as §1, §2, §4, §5, §3, §6, §7, §8

Pseudomonas oleovorans = experiment: as above; assay type: cell-based; details: CASO agar pH 7
Description: as §1, §2, §4, §5, §3, §6, §7, §8

Proteus vulgaris = experiment: as above; assay type: cell-based; details: CASO agar pH 7
Description: as §1, §2, §4, §5, §3, §6, §7, §8

Pseudomonas aeruginosa = experiment: as above; assay type: cell-based; details: CASO agar pH 7
Description: as §1, §2, §4, §5, §3, §6, §7, §8

Candida albicans = experiment: as above; assay type: cell-based; details: Sabouraud 4% dextrose agar pH 5.6
Description: as §1, §2, §4, §5, §3, §6, §7, §8

Klebsiella pneumoniae = experiment: as above; assay type: cell-based; details: CASO agar pH 7
Description: as §1, §2, §4, §5, §3, §6, §7, §8

Aspergillus terreus = experiment: as above; assay type: cell-based; details: Sabouraud 4% dextrose agar pH 5.6
Description: as §1, §2, §4, §5, §3, §6, §7, §8

Citrobacter freundii = experiment: as above; assay type: cell-based; details: CASO agar pH 7
Description: as §1, §2, §4, §5, §3, §6, §7, §8

Staphylococcus aureus = experiment: as above; assay type: cell-based; details: CASO agar pH 7
Description: as §1, §2, §4, §5, §3, §6, §7, §8

Aspergillus brasiliensis = experiment: as above; assay type: cell-based; details: Sabouraud 4% dextrose agar pH 5.6
Description: as §1, §2, §4, §5, §3, §6, §7, §8

[3] = in composition A, MIC mixture x 0.01
[4] = pure substance, corrected for dilution

## CCCCCCCC(=O)O [caprylic acid, octanoic acid]
[1]; at a pH of 6 or above
  antimicrobial activity (in words): no antimicrobial activity
[1]
  antimicrobial efficacy (in words): antimicrobially effective

## O[C@@H]1CO[C@H]2[C@@H]1OC[C@@H]2O [isosorbide]
[2]; as shown by the results of Table 2
  antimicrobial activity (in words): neither isosorbide nor isosorbide dicaprylate are antimicrobially active
Fusarium solani; Fusarium solani, Table 2
  MIC: 10000 µg/mL (≈ 68.4 mM)
Enterobacter aerogenes; Klebsiella aerogenes, Table 2
  MIC: 10000 µg/mL (≈ 68.4 mM)
Penicillium minioluteum; Talaromyces minioluteus, Table 2
  MIC: 10000 µg/mL (≈ 68.4 mM)
Penicillium funicolosium; Penicillium, Table 2
  MIC: 10000 µg/mL (≈ 68.4 mM)
Escherichia coli; Escherichia coli, Table 2
  MIC: 10000 µg/mL (≈ 68.4 mM)
Pseudomonas oleovorans; Ectopseudomonas oleovorans, Table 2
  MIC: 10000 µg/mL (≈ 68.4 mM)
Proteus vulgaris; Proteus vulgaris, Table 2
  MIC: 10000 µg/mL (≈ 68.4 mM)
Pseudomonas aeruginosa; Pseudomonas aeruginosa, Table 2
  MIC: 10000 µg/mL (≈ 68.4 mM)
Candida albicans; Candida albicans, Table 2
  MIC: 10000 µg/mL (≈ 68.4 mM)
Klebsiella pneumoniae; Klebsiella pneumoniae, Table 2
  MIC: 10000 µg/mL (≈ 68.4 mM)
Aspergillus terreus; Aspergillus terreus, Table 2
  MIC: 10000 µg/mL (≈ 68.4 mM)
Citrobacter freundii; Citrobacter freundii, Table 2
  MIC: 10000 µg/mL (≈ 68.4 mM)
Staphylococcus aureus; Staphylococcus aureus, Table 2
  MIC: 10000 µg/mL (≈ 68.4 mM)
Aspergillus brasiliensis; Aspergillus brasiliensis, Table 2
  MIC: 10000 µg/mL (≈ 68.4 mM)

## Cn1sccc1=O [methylisothiazolinone]
Fusarium solani; [3]
  Qb, calc. (MIC of methylisothiazolinone in the mixture employed): 7.5 ppm
Fusarium solani; [4]
  QB, meas. (MIC of methylisothiazolinone): 100 ppm
Enterobacter aerogenes; [3]
  Qb, calc. (MIC of methylisothiazolinone in the mixture employed): 15 ppm
Enterobacter aerogenes; [4]
  QB, meas. (MIC of methylisothiazolinone): 15 ppm
Penicillium minioluteum; [3]
  Qb, calc. (MIC of methylisothiazolinone in the mixture employed): 7.5 ppm
Penicillium minioluteum; [4]
  QB, meas. (MIC of methylisothiazolinone): 100 ppm
Penicillium funicolosium; [3]
  Qb, calc. (MIC of methylisothiazolinone in the mixture employed): 7.5 ppm
Penicillium funicolosium; [4]
  QB, meas. (MIC of methylisothiazolinone): 100 ppm
Escherichia coli; [3]
  Qb, calc. (MIC of methylisothiazolinone in the mixture employed): 10 ppm
Escherichia coli; [4]
  QB, meas. (MIC of methylisothiazolinone): 10 ppm
Pseudomonas oleovorans; [3]
  Qb, calc. (MIC of methylisothiazolinone in the mixture employed): 5 ppm
Pseudomonas oleovorans; [4]
  QB, meas. (MIC of methylisothiazolinone): 5 ppm
Proteus vulgaris; [3]
  Qb, calc. (MIC of methylisothiazolinone in the mixture employed): 5 ppm
Proteus vulgaris; [4]
  QB, meas. (MIC of methylisothiazolinone): 5 ppm
Pseudomonas aeruginosa; [3]
  Qb, calc. (MIC of methylisothiazolinone in the mixture employed): 20 ppm
Pseudomonas aeruginosa; [4]
  QB, meas. (MIC of methylisothiazolinone): 40 ppm
Candida albicans; [3]
  Qb, calc. (MIC of methylisothiazolinone in the mixture employed): 10 ppm
Candida albicans; [4]
  QB, meas. (MIC of methylisothiazolinone): 100 ppm
Klebsiella pneumoniae; [3]
  Qb, calc. (MIC of methylisothiazolinone in the mixture employed): 15 ppm
Klebsiella pneumoniae; [4]
  QB, meas. (MIC of methylisothiazolinone): 15 ppm
Aspergillus terreus; [3]
  Qb, calc. (MIC of methylisothiazolinone in the mixture employed): 7.5 ppm
Aspergillus terreus; [4]
  QB, meas. (MIC of methylisothiazolinone): 100 ppm
Citrobacter freundii; [3]
  Qb, calc. (MIC of methylisothiazolinone in the mixture employed): 10 ppm
Citrobacter freundii; [4]
  QB, meas. (MIC of methylisothiazolinone): 15 ppm
Staphylococcus aureus; [3]
  Qb, calc. (MIC of methylisothiazolinone in the mixture employed): 25 ppm
Staphylococcus aureus; [4]
  QB, meas. (MIC of methylisothiazolinone): 40 ppm
Aspergillus brasiliensis; [3]
  Qb, calc. (MIC of methylisothiazolinone in the mixture employed): 10 ppm
Aspergillus brasiliensis; [4]
  QB, meas. (MIC of methylisothiazolinone): 100 ppm

## isosorbide monocaprylate
[2]; concluded from Tables 1 and 2
  antimicrobial activity (in words): significant antimicrobial activity

— patent US20140329870A1, “COMPOSITIONS COMPRISING ISOSORBIDE MONOESTERS AND ISOTHIAZOLINONES” (CLARIANT INTERNATIONAL LTD., priority 2011, published 2014)
